{"source": "paper PMC5053573", "about": "“Structure-Based Design of Tetrahydroisoquinoline-7-carboxamides as Selective Discoidin Domain Receptor 1 (DDR1) Inhibitors” (Journal of Medicinal Chemistry, 2016)", "assay_in_all_cases": "biochemical", "conditions_in_all_cases": "read-out: %Ctrl @ 1000nM", "key": {"PRKD3": {"target": "PRKD3 (Homo sapiens, UniProt O94806)"}, "p38-gamma": {"target": "T1, p38-gamma (Homo sapiens, UniProt P53778)", "T1 construct": "gene MAPK12"}, "MEK1": {"target": "T2, MEK1 (Homo sapiens, UniProt Q02750)", "T2 construct": "gene MAP2K1"}, "GRK7": {"target": "GRK7 (Homo sapiens, UniProt Q8WTQ7)", "sequence (Q8WTQ7 whole entry)": "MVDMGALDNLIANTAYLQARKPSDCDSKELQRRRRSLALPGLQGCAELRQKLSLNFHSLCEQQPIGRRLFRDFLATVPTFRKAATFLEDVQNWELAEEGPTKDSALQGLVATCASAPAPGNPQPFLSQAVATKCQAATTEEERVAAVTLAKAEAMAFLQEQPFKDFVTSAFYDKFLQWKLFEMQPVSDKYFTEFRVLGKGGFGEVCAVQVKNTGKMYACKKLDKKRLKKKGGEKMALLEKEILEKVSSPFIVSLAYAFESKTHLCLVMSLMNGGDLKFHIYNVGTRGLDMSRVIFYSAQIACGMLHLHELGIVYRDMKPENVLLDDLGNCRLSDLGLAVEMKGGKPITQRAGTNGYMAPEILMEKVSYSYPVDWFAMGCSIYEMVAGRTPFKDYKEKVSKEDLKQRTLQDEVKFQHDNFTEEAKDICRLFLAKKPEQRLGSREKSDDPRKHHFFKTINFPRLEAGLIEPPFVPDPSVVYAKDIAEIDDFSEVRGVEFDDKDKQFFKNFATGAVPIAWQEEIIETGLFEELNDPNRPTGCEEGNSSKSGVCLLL"}, "MST3": {"target": "T3, MST3 (Homo sapiens, UniProt Q9Y6E0)", "T3 construct": "gene STK24"}, "PIK3CA(C420R)": {"target": "PIK3CA(C420R) (Homo sapiens, UniProt P42336, C420R)"}, "[1]": {"target": "JAK1(JH2domain-pseudokinase) (Homo sapiens, UniProt P23458)"}, "ACVRL1": {"target": "ACVRL1 (Homo sapiens, UniProt P37023)"}, "CSF1R-autoinhibited": {"target": "CSF1R-autoinhibited (Homo sapiens, UniProt P07333)"}, "MYLK4": {"target": "MYLK4 (Homo sapiens, UniProt Q86YV6)", "sequence (Q86YV6 whole entry)": "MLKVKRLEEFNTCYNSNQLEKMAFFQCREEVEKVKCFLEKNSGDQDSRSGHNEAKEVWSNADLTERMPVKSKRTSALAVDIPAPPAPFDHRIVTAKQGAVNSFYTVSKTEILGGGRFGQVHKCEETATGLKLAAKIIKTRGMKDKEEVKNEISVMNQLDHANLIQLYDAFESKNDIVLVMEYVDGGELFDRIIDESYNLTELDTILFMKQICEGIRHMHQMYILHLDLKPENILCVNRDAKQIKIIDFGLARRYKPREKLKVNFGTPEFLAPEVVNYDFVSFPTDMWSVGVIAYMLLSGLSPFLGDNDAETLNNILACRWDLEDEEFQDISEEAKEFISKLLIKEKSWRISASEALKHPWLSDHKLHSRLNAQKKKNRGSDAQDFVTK"}, "TAK1": {"target": "T4, TAK1 (Homo sapiens, UniProt O43318)", "T4 construct": "gene MAP3K7"}, "SIK": {"target": "T5, SIK (Homo sapiens, UniProt P57059)", "T5 construct": "gene SIK1"}, "MARK4": {"target": "MARK4 (Homo sapiens, UniProt Q96L34)"}, "MAST1": {"target": "MAST1 (Homo sapiens, UniProt Q9Y2H9)"}, "CDK8": {"target": "CDK8 (Homo sapiens, UniProt P49336)"}, "PYK2": {"target": "T6, PYK2 (Homo sapiens, UniProt Q14289)", "T6 construct": "gene PTK2B"}, "EPHA7": {"target": "EPHA7 (Homo sapiens, UniProt Q15375)"}, "NIM1": {"target": "T7, NIM1 (Homo sapiens, UniProt Q8IY84)", "T7 construct": "gene NIM1K"}, "PHKG1": {"target": "PHKG1 (Homo sapiens, UniProt Q16816)"}, "CAMKK2": {"target": "CAMKK2 (Homo sapiens, UniProt Q96RR4)", "sequence (Q96RR4 whole entry)": "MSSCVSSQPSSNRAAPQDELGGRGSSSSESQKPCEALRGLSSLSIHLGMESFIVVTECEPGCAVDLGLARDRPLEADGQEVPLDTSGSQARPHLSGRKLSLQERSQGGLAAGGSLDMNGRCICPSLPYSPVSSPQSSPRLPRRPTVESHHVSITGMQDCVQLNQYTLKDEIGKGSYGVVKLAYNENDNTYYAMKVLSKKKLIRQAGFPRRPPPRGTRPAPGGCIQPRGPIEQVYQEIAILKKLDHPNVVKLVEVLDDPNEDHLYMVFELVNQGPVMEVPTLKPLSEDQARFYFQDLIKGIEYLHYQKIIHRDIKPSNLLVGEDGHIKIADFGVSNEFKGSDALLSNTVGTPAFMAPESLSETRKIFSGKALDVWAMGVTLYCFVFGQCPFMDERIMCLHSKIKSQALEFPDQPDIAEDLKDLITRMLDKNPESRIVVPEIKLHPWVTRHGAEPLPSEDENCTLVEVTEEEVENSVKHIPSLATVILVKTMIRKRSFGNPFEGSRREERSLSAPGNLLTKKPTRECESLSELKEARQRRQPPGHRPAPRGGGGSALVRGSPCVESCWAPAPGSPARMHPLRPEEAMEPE"}, "HASPIN": {"target": "HASPIN (Homo sapiens, UniProt Q8TF76)", "sequence (Q8TF76 whole entry)": "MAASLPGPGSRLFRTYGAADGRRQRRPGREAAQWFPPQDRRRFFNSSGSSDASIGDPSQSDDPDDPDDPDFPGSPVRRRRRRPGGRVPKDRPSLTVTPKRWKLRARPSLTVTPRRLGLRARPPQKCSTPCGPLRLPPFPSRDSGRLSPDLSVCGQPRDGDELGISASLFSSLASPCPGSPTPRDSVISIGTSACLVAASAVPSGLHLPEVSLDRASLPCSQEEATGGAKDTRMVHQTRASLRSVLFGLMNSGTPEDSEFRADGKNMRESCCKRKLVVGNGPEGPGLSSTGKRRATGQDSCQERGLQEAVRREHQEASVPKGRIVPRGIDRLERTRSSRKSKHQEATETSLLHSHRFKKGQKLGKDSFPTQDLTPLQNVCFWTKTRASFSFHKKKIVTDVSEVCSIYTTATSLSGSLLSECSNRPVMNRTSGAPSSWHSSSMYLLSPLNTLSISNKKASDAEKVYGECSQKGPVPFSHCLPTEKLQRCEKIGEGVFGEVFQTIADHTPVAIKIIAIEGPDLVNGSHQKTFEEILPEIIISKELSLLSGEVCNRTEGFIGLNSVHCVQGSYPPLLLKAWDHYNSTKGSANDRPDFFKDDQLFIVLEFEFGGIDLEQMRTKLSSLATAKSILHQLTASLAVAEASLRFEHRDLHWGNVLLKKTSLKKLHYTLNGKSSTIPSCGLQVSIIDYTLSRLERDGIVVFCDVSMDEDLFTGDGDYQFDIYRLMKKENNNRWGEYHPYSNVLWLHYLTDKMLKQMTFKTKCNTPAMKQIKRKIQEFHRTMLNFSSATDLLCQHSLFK"}, "INSR": {"target": "INSR (Homo sapiens, UniProt P06213)"}, "AMPK-alpha1": {"target": "T8, AMPK-alpha1 (Homo sapiens, UniProt Q13131)", "T8 construct": "gene PRKAA1"}, "[2]": {"target": "ABL1(Y253F)-phosphorylated (Homo sapiens, UniProt P00519, Y253F)"}, "DCAMKL2": {"target": "T9, DCAMKL2 (Homo sapiens, UniProt Q8N568)", "T9 construct": "gene DCLK2"}, "FYN": {"target": "FYN (Homo sapiens, UniProt P06241)"}, "EGFR(L747-T751del,Sins)": {"target": "EGFR(L747-T751del,Sins) (Homo sapiens, UniProt P00533, DEL747-750/T751S)", "sequence (P00533 with tags, fused parts or gaps DEL747-750/T751S)": "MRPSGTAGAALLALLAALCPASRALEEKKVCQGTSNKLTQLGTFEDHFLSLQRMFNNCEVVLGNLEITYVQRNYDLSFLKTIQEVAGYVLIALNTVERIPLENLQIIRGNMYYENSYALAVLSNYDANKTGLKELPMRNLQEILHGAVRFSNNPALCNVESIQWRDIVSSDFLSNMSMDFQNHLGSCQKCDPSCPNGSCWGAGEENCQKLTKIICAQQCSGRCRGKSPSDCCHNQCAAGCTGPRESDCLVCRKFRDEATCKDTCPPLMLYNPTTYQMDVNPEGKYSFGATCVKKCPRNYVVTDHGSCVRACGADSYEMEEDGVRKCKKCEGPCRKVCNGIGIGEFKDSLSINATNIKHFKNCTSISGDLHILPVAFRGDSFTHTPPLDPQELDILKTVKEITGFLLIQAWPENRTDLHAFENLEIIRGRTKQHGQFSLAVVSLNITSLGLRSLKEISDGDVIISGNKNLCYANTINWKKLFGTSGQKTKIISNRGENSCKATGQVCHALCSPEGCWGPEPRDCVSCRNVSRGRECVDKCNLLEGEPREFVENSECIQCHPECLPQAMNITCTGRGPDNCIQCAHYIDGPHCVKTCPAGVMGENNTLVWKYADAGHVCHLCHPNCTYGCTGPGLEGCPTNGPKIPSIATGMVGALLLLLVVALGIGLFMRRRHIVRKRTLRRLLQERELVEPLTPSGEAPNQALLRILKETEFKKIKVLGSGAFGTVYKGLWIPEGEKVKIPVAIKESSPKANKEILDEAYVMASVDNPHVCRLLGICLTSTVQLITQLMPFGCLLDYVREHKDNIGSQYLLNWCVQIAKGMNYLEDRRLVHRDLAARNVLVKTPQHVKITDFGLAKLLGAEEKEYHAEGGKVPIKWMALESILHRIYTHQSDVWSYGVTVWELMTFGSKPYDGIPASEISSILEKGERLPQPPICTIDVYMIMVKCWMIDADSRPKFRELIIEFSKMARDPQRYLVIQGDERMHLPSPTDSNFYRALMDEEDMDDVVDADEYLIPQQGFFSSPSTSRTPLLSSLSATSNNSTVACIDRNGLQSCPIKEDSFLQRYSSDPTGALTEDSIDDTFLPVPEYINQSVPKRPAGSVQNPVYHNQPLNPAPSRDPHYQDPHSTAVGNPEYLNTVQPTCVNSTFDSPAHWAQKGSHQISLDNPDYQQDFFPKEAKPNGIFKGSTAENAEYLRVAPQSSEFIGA"}, "ERN1": {"target": "ERN1 (Homo sapiens, UniProt O75460)"}, "TNK1": {"target": "TNK1 (Homo sapiens, UniProt Q13470)", "sequence (Q13470 whole entry)": "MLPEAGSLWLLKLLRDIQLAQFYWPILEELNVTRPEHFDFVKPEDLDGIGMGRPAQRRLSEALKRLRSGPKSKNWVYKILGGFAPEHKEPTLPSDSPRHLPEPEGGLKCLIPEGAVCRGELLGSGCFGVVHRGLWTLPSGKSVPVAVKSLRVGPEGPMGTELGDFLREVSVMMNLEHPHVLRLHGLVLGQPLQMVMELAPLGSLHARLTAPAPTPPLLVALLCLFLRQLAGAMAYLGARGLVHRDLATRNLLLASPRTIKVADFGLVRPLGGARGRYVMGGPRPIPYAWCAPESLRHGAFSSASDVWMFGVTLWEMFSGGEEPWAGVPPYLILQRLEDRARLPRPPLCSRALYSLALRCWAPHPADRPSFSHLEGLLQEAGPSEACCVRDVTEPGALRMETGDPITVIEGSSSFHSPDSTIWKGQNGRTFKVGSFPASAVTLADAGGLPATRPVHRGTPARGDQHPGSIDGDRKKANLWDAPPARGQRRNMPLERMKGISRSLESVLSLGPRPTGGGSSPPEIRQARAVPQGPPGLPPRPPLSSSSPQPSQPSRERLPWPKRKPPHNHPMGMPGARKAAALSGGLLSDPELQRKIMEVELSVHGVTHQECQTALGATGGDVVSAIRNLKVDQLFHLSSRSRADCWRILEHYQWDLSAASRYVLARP"}, "[3]": {"target": "ABL1(T315I)-nonphosphorylated (Homo sapiens, UniProt P00519, T315I)"}, "PIK3CA(I800L)": {"target": "PIK3CA(I800L) (Homo sapiens, UniProt P42336, I800L)"}, "DCAMKL3": {"target": "T10, DCAMKL3 (Homo sapiens, UniProt Q9C098)", "T10 construct": "gene DCLK3"}, "CDK4-cyclinD3": {"target": "CDK4-cyclinD3 (Homo sapiens, UniProt P11802)"}, "IRAK3": {"target": "IRAK3 (Homo sapiens, UniProt Q9Y616)"}, "PRKG1": {"target": "PRKG1 (Homo sapiens, UniProt Q13976)", "sequence (Q13976 whole entry)": "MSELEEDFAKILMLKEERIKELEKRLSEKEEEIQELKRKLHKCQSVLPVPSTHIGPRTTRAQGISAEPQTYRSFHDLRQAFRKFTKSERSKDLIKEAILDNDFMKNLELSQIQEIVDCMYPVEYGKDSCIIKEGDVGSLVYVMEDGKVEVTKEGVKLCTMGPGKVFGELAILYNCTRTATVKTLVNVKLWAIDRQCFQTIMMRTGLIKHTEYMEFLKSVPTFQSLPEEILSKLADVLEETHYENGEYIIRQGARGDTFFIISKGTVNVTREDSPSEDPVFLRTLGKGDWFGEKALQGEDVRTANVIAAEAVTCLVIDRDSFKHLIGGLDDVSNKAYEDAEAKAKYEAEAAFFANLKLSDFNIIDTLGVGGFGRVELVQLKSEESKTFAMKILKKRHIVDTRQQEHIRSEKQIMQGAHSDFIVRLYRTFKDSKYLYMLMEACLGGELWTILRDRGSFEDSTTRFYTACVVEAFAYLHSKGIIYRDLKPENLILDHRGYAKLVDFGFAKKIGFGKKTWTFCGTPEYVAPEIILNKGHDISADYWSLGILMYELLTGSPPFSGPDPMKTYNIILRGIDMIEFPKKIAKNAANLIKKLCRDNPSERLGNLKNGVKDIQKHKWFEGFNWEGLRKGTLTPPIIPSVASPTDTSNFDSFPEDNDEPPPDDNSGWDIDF"}}, "data": [{"compound": "Cc1cn(-c2cc(NC(=O)c3ccc4c(c3)CN(c3cncnc3)C[C@@H]4C)cc(C(F)(F)F)c2)cn1", "note": "[Compound 6j]", "values": [{"measurement": "remaining activity at 1 µM", "setting": "PRKD3", "result": 100, "unit": "%"}, {"measurement": "remaining activity at 1 µM", "setting": "p38-gamma", "result": 79, "unit": "%"}, {"measurement": "remaining activity at 1 µM", "setting": "MEK1", "result": 94, "unit": "%"}, {"measurement": "remaining activity at 1 µM", "setting": "GRK7", "result": 94, "unit": "%"}, {"measurement": "remaining activity at 1 µM", "setting": "MST3", "result": 64, "unit": "%"}, {"measurement": "remaining activity at 1 µM", "setting": "PIK3CA(C420R)", "result": 97, "unit": "%"}, {"measurement": "remaining activity at 1 µM", "setting": "[1]", "result": 100, "unit": "%"}, {"measurement": "remaining activity at 1 µM", "setting": "ACVRL1", "result": 76, "unit": "%"}, {"measurement": "remaining activity at 1 µM", "setting": "CSF1R-autoinhibited", "result": 93, "unit": "%"}, {"measurement": "remaining activity at 1 µM", "setting": "MYLK4", "result": 100, "unit": "%"}, {"measurement": "remaining activity at 1 µM", "setting": "TAK1", "result": 93, "unit": "%"}, {"measurement": "remaining activity at 1 µM", "setting": "SIK", "result": 84, "unit": "%"}, {"measurement": "remaining activity at 1 µM", "setting": "MARK4", "result": 100, "unit": "%"}, {"measurement": "remaining activity at 1 µM", "setting": "MAST1", "result": 100, "unit": "%"}, {"measurement": "remaining activity at 1 µM", "setting": "CDK8", "result": 37, "unit": "%"}, {"measurement": "remaining activity at 1 µM", "setting": "PYK2", "result": 93, "unit": "%"}, {"measurement": "remaining activity at 1 µM", "setting": "EPHA7", "result": 62, "unit": "%"}, {"measurement": "remaining activity at 1 µM", "setting": "NIM1", "result": 100, "unit": "%"}, {"measurement": "remaining activity at 1 µM", "setting": "PHKG1", "result": 95, "unit": "%"}, {"measurement": "remaining activity at 1 µM", "setting": "CAMKK2", "result": 72, "unit": "%"}, {"measurement": "remaining activity at 1 µM", "setting": "HASPIN", "result": 100, "unit": "%"}, {"measurement": "remaining activity at 1 µM", "setting": "INSR", "result": 100, "unit": "%"}, {"measurement": "remaining activity at 1 µM", "setting": "AMPK-alpha1", "result": 83, "unit": "%"}, {"measurement": "remaining activity at 1 µM", "setting": "[2]", "result": 98, "unit": "%"}, {"measurement": "remaining activity at 1 µM", "setting": "DCAMKL2", "result": 100, "unit": "%"}, {"measurement": "remaining activity at 1 µM", "setting": "FYN", "result": 69, "unit": "%"}, {"measurement": "remaining activity at 1 µM", "setting": "EGFR(L747-T751del,Sins)", "result": 97, "unit": "%"}, {"measurement": "remaining activity at 1 µM", "setting": "ERN1", "result": 100, "unit": "%"}, {"measurement": "remaining activity at 1 µM", "setting": "TNK1", "result": 79, "unit": "%"}, {"measurement": "remaining activity at 1 µM", "setting": "[3]", "result": 100, "unit": "%"}, {"measurement": "remaining activity at 1 µM", "setting": "PIK3CA(I800L)", "result": 100, "unit": "%"}, {"measurement": "remaining activity at 1 µM", "setting": "DCAMKL3", "result": 86, "unit": "%"}, {"measurement": "remaining activity at 1 µM", "setting": "CDK4-cyclinD3", "result": 100, "unit": "%"}, {"measurement": "remaining activity at 1 µM", "setting": "IRAK3", "result": 86, "unit": "%"}, {"measurement": "remaining activity at 1 µM", "setting": "PRKG1", "result": 81, "unit": "%"}]}]}
